Test systems include HL-60; SNB-75; CAKI-1; RPMI-8226; MDA-MB-231; NCI-H522; MCF7; NCI-H460; TK-10; DU-145; HCT-15; HOP-62; UACC-62; KM12; SN12C; COLO 205; SF-539; SK-MEL-28; SW-620; MDA-MB-435.
What all share (test): NCI tumour cell line growth inhibition, 48 h

Each structure is given as a SMILES string.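 All cell lines were grown in 96-well plates and treated with compound for 48 hours. The concentration for 50% growth inhibition is given as GI50.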 Calls of active or inactive are those of the source. Rule as the data show it: active = GI50 up to about 1.1 µM and inactive = higher. Some results are limits rather than exact numbers.

Take `CC(=O)O[C@H]1CC[C@H]2[C@@H]3CCC4C(C)=NNC(=O)C4[C@H]3CC[C@]12C` (stereo partly drawn): the GI50 in the experiment with HL-60 is > 100 µM (inactive); in the experiment on SNB-75, 14.2 µM (inactive); in the experiment with CAKI-1, > 90.2 µM (inactive); in the experiment with RPMI-8226 it was > 100 µM (inactive); in the experiment with MDA-MB-231 it was 33.3 µM (inactive); in the experiment with NCI-H522 it was 34 µM (inactive). In addition, the GI50 in the experiment on MCF7 is > 100 µM (inactive); with NCI-H460 it was > 100 µM (inactive); in the experiment with TK-10, > 76.6 µM (inactive); with DU-145, > 75.5 µM (inactive); in the experiment with HCT-15 it was more than 100 µM; with HOP-62, 19.8 µM (inactive). For the same compound, the GI50 was > 100 µM (inactive) in the experiment with UACC-62; > 100 µM (inactive) in the experiment on KM12; 95.5 µM (inactive) with SN12C; > 100 µM (inactive) in the experiment with COLO 205; 65.9 µM (inactive) in the experiment on SF-539; > 100 µM (inactive) in the experiment with SK-MEL-28. The GI50 in the experiment with SW-620 and in the experiment on MDA-MB-435 was > 100 µM (inactive) throughout.

In the case of `ClCCCCCc1c2nc(c(CCCCCCl)c3ccc([nH]3)c(CCCCCCl)c3nc(c(CCCCCCl)c4ccc1[nH]4)C=C3)C=C2`, the GI50 was > 100 µM (inactive) with HL-60; 83.4 µM (inactive) in the experiment on SNB-75; > 100 µM (inactive) in the experiment with CAKI-1; > 100 µM (inactive) in the experiment on RPMI-8226; > 100 µM (inactive) in the experiment with MDA-MB-231; > 100 µM (inactive) with NCI-H522. Further, the GI50 was > 100 µM (inactive) with MCF7; > 100 µM (inactive) with NCI-H460; > 100 µM (inactive) in the experiment on TK-10; 1 µM (active) with DU-145; more than 100 µM in the experiment on HCT-15; > 100 µM (inactive) in the experiment with HOP-62. The GI50 in the experiment on UACC-62, in the experiment with KM12, in the experiment on SN12C, with COLO 205, in the experiment on SF-539 and in the experiment with SK-MEL-28 was > 100 µM (inactive) in each case. For the same compound, the GI50 in the experiment on SW-620 and in the experiment on MDA-MB-435 was > 100 µM (inactive) in each case.

Turning to `O=C1NC2c3c(I)sc(I)c3/C(=N\O)C2O1` (stereo not drawn), the GI50 with HL-60 was 20 µM (inactive); in the experiment on SNB-75, 59.6 µM (inactive); with CAKI-1, 32.7 µM (inactive); in the experiment with RPMI-8226, 67.9 µM (inactive); in the experiment on MDA-MB-231, 24 µM (inactive); with MCF7, 33.8 µM (inactive). In addition, the GI50 in the experiment with NCI-H460 was 31.5 µM (inactive); in the experiment with TK-10, 48.5 µM (inactive); in the experiment with DU-145, 53.7 µM (inactive); in the experiment with HCT-15, 24.4 µM; in the experiment on HOP-62 it was 30.5 µM (inactive); in the experiment with UACC-62 it was 20.7 µM (inactive). Moreover, the GI50 in the experiment on KM12 is 30.1 µM (inactive); with SN12C, 30.8 µM (inactive); in the experiment with COLO 205 it was 20.8 µM (inactive); in the experiment with SF-539 it was 14.2 µM (inactive); with SK-MEL-28 it was 41.8 µM (inactive); in the experiment on SW-620 it was 19 µM (inactive). Further, the GI50 in the experiment with MDA-MB-435 was 26.5 µM (inactive).

On to `Cc1cc([C@H](C#N)c2nc3ccccc3[nH]2)nc(Cl)n1`, for which the GI50 with HL-60 was 19.2 µM (inactive); with SNB-75 it was 31 µM (inactive); in the experiment on CAKI-1 it was 98.4 µM (inactive); in the experiment on RPMI-8226, 5.65 µM (inactive); in the experiment with MDA-MB-231, 59.3 µM (inactive); in the experiment with MCF7 it was 41.8 µM (inactive). The GI50 was 24.5 µM (inactive) in the experiment on NCI-H460; 61.1 µM (inactive) in the experiment with TK-10; 30.6 µM (inactive) in the experiment on DU-145; 25.8 µM in the experiment with HCT-15; 22.3 µM (inactive) with UACC-62; 14.9 µM (inactive) in the experiment with KM12. The GI50 in the experiment with SN12C was 51.2 µM (inactive); in the experiment on COLO 205, 42.1 µM (inactive); with SF-539 it was 61.9 µM (inactive); with SK-MEL-28 it was 39.1 µM (inactive); in the experiment on SW-620 it was 24.2 µM (inactive); in the experiment on MDA-MB-435, 30.4 µM (inactive).

Turning to `CC(=O)OCc1cc2c(s1)C(=O)c1sccc1C2=O`, the GI50 is 0.29 µM (active) with HL-60; 0.057 µM (active) in the experiment with SNB-75; 1.84 µM (inactive) in the experiment with CAKI-1; 0.239 µM (active) in the experiment with RPMI-8226; 0.237 µM (active) in the experiment with MDA-MB-231; 0.147 µM (active) with NCI-H522. Further, the GI50 with MCF7 is 0.208 µM (active); in the experiment on NCI-H460, 0.175 µM (active); in the experiment with TK-10, 1.79 µM (inactive); in the experiment with DU-145 it was 0.0336 µM (active); with HCT-15, 0.156 µM; with UACC-62, 0.166 µM (active). Moreover, the GI50 is 0.234 µM (active) in the experiment with KM12; 0.13 µM (active) in the experiment with SN12C; 1.65 µM (inactive) in the experiment with COLO 205; 0.115 µM (active) with SF-539; < 0.0386 µM (active) in the experiment on SK-MEL-28; 0.104 µM (active) in the experiment with SW-620. For the same compound, in the experiment on MDA-MB-435, the GI50 was 0.0178 µM (active).

On to `COc1cc(C2c3cc(O)c(OC)cc3C3OCC2C3CO)ccc1O` (stereo not drawn), for which the GI50 in the experiment with HL-60, in the experiment with SNB-75, with CAKI-1, with RPMI-8226, in the experiment on MDA-MB-231 and in the experiment on NCI-H522 was > 100 µM (inactive) throughout. The GI50 in the experiment on MCF7 was > 100 µM (inactive); in the experiment on NCI-H460, > 100 µM (inactive); in the experiment with TK-10, > 100 µM (inactive); with DU-145, > 100 µM (inactive); in the experiment with HCT-15, more than 100 µM; in the experiment with HOP-62 it was > 100 µM (inactive). Besides, the GI50 in the experiment with UACC-62, with KM12, with COLO 205, with SF-539, with SK-MEL-28 and with SW-620 was > 100 µM (inactive) in each case. The GI50 in the experiment on MDA-MB-435 is > 100 µM (inactive).

With `Cc1n[nH]c(=S)n1/N=C/c1ccc(-c2ccc(Cl)cc2)o1`, the GI50 in the experiment with HL-60 is 44.2 µM (inactive); in the experiment with SNB-75, 31.9 µM (inactive); in the experiment on CAKI-1 it was > 100 µM (inactive); in the experiment with RPMI-8226, > 100 µM (inactive); in the experiment with MDA-MB-231, 73.5 µM (inactive); in the experiment on NCI-H522, > 100 µM (inactive). The GI50 with MCF7 is > 100 µM (inactive); with NCI-H460, > 100 µM (inactive); in the experiment on TK-10 it was 83.4 µM (inactive); in the experiment with DU-145, > 100 µM (inactive); with HCT-15 it was more than 100 µM; with HOP-62, 49.7 µM (inactive). For the same compound, the GI50 in the experiment with KM12 is > 100 µM (inactive); with SF-539, 77.1 µM (inactive); in the experiment on SK-MEL-28 it was > 100 µM (inactive); with SW-620, > 100 µM (inactive); in the experiment with MDA-MB-435, > 100 µM (inactive).

Turning to `COC(=O)C1=C(O)C(C(=O)OC)[C@]2(O)[C@H](C(=O)OC)[C@H]1C[C@@H](c1ccc(Cl)cc1Cl)[C@H]2C(=O)OC` (stereo partly drawn), the GI50 in the experiment with HL-60 was 2.65 µM (inactive); in the experiment on SNB-75 it was 8.61 µM (inactive); with CAKI-1, 9.68 µM (inactive); in the experiment with RPMI-8226 it was 1.75 µM (inactive); with MDA-MB-231, 19.5 µM (inactive); with MCF7, 4.79 µM (inactive). In addition, the GI50 was 5.64 µM (inactive) in the experiment on NCI-H460; 12.6 µM (inactive) with TK-10; 6.68 µM (inactive) in the experiment on DU-145; 4.91 µM in the experiment with HCT-15; 5.5 µM (inactive) with HOP-62; 9.46 µM (inactive) in the experiment on UACC-62. For the same compound, the GI50 with KM12 was 12.3 µM (inactive); in the experiment with SN12C, 3.28 µM (inactive); in the experiment with COLO 205, 8.77 µM (inactive); in the experiment on SF-539, 2.84 µM (inactive); with SK-MEL-28, 12.4 µM (inactive); with SW-620 it was 6.01 µM (inactive). For the same compound, the GI50 in the experiment with MDA-MB-435 is 4.09 µM (inactive).

In the case of `N#CC1=C(N)N(/N=C/c2ccccc2)C(c2ccccc2)C1(C#N)C#N` (stereo not drawn), the GI50 in the experiment with HL-60 is 2.19 µM (inactive); in the experiment on SNB-75, 16.9 µM (inactive); in the experiment on CAKI-1, 4.61 µM (inactive); with RPMI-8226 it was 4.94 µM (inactive); in the experiment with MDA-MB-231, 17 µM (inactive); in the experiment with NCI-H522, 4.38 µM (inactive). For the same compound, the GI50 in the experiment on MCF7 was 8.17 µM (inactive); in the experiment on TK-10 it was 6.3 µM (inactive); in the experiment on DU-145, 16.5 µM (inactive); with HCT-15, 6.75 µM; in the experiment with HOP-62, 16.8 µM (inactive); with UACC-62, 13.5 µM (inactive). For the same compound, the GI50 in the experiment on KM12 is 22.8 µM (inactive); in the experiment on SN12C, 14.6 µM (inactive); in the experiment on COLO 205 it was 2.19 µM (inactive); in the experiment on SF-539, 16.5 µM (inactive); in the experiment on SK-MEL-28, 4.79 µM (inactive); with SW-620 it was 5.18 µM (inactive). The GI50 in the experiment with MDA-MB-435 is 18.2 µM (inactive).

Turning to `CCOC(=O)Nc1cc2c(c(N)n1)N=C(c1ccc(Cl)cc1Cl)CN2`, the GI50 is 0.0132 µM (active) with HL-60; < 0.01 µM (active) with SNB-75; 0.0383 µM (active) with CAKI-1; < 0.01 µM (active) with RPMI-8226; 0.0442 µM (active) with MDA-MB-231; < 0.0213 µM (active) in the experiment with NCI-H522. Further, the GI50 in the experiment on MCF7 was 0.132 µM (active); with NCI-H460, < 0.0154 µM (active); with TK-10, 3.78 µM (inactive); with DU-145, < 0.0191 µM (active); in the experiment on HCT-15 it was less than 0.0229 µM; in the experiment with HOP-62, < 0.0189 µM (active). The GI50 is < 0.0105 µM (active) in the experiment with UACC-62; < 0.0174 µM (active) in the experiment with KM12; 0.0805 µM (active) in the experiment on SN12C; 0.0425 µM (active) in the experiment on COLO 205; < 0.0173 µM (active) with SF-539; < 0.0194 µM (active) in the experiment with SW-620. Further, the GI50 with MDA-MB-435 was < 0.01 µM (active).

`O=C1NC(N2CCOCC2)=N/C1=C\c1ccccc1`: the GI50 with HL-60, with SNB-75, with CAKI-1, in the experiment with RPMI-8226, in the experiment on MDA-MB-231 and in the experiment on NCI-H522 was > 100 µM (inactive) in each case. Besides, the GI50 is > 100 µM (inactive) with MCF7; > 100 µM (inactive) with TK-10; > 100 µM (inactive) in the experiment on DU-145; more than 100 µM in the experiment on HCT-15; > 100 µM (inactive) in the experiment with HOP-62; > 100 µM (inactive) in the experiment with UACC-62. Also, the GI50 with KM12, with SN12C, in the experiment on COLO 205, with SF-539, in the experiment with SK-MEL-28 and in the experiment on SW-620 was > 100 µM (inactive) throughout. Moreover, the GI50 in the experiment on MDA-MB-435 is > 100 µM (inactive).

(Values after ChEMBL document CHEMBL1201862, “PubChem BioAssay data set” (2004).)
